Results: US7704701B2, “Diagnosis of prostate cancer with SPAS-1 cancer antigen” (The Regents of the University of California, priority 2000, dated 2010)

Assays:
CD8+ T cells [1] = experiment: IFN-γ production (ELISA) by FL-9-primed CD8+ T cells in response to titrated peptide pulsed onto THP-1 cells; assay type: cell-based, human; conditions: fourteen days after first stimulation
Description: FIG. 24. […] A) Monocyte-derived DCs from HLA-A2+ healthy donors were pulsed with HuSPAS-1 peptide 4 (FL-9) and then incubated with autologous PBMC. Following another in vitro restimulation, T cell cultures were then assessed for their capacity to produce IFN-γ in response to titrated doses of peptide 4 (FL-9), pulsed onto the HLA-A2 expressing cell line THP-1. IFN-γ was assessed by ELISA on the cell supernatants in triplicate wells. […] (100,000 CD8+ T cells/well and 50,000 THP-1 cells/well). […] Responsiveness of the FL-9-reactive CD8+ T cell line was assessed by co-culturing 100,000 CD8+ T cells with titrated numbers of infected THP-1 cells.
Monocyte-derived DCs from HLA-A2+ healthy donors were pulsed with HuSPAS-1 peptide 4 (FL-9) and then incubated with autologous PBMC. Following another in vitro restimulation, T cell cultures were then assessed for their capacity to produce IFN-γ in response to titrated doses of peptide 4 (FL-9), pulsed onto the HLA-A2 expressing cell line THP-1. IFN-γ was assessed by ELISA on the cell supernatants in triplicate wells. […] Responsiveness of the FL-9-reactive CD8+ T cell line was assessed by co-culturing 100,000 CD8+ T cells with titrated numbers of infected THP-1 cells.

CD8+ T cells [2] = experiment: IFN-γ production (ELISA) by in vitro primed T cell cultures in response to peptide pulsed onto A221 cells; assay type: cell-based, human; conditions: HLA-A2+ healthy donors
Excerpt: (§1) FIG. 21: Strategy for the generation of human cytotoxic T lymphocytes (CTLs) specific for candidate human SPAS-1 peptides: In order to determine whether CD8+ T cells specific for human SPAS-1 peptides are present in the periphery of healthy individuals we used an in vitro priming strategy. Briefly, immature Myeloid Dendritic Cells (mDCs) were generated from culturing monocytes isolated from Peripheral Blood Mononuclear Cells (PBMCs) of a healthy HLA-A2+ donor for 5 days in GM-CSF and IL-4.
Following another in vitro restimulation, T cell cultures were assessed for their capacity to produce IFN-γ in response to the corresponding peptide, pulsed onto the HLA-A2 expressing cell line A221. IFN-γ was assessed by ELISA on the cell supernatants in triplicate wells.
as §1, with “In” for “FIG. 21: Strategy for the generation of human cytotoxic T lymphocytes (CTLs) specific for candidate human SPAS-1 peptides: In”

Sequence | IFN-γ production in response to increasing doses of peptide (CD8+ T cells [1]) | immunogenicity: IFN-γ production in response to the corresponding peptide (CD8+ T cells [2])
FLTPLRNFL (H. sapiens) [P4] | specifically produced IFN-γ | Immunogenic
LLADELITV (H. sapiens) [P1] | not | 
